Measurements from ChEMBL document CHEMBL2029240 (ACS Med Chem Lett, 2011).

What was measured:
[1] = molecular target: hERG (KCNH2) (Homo sapiens, UniProt Q12809); test: Inhibition of human ERG at 10 uM by patch clamp assay
[2] = molecular target: Voltage-gated inwardly rectifying potassium channel KCNH2 (Homo sapiens, UniProt Q12809); test: Displacement of [3H]dofetilide from human ERG
[3] = molecular target: T1, C-C chemokine receptor type 2 (Homo sapiens, UniProt P41597)
Description: Displacement of [125I]MCP1 from human CCR2 in PBMC after 30 mins by gamma counting

[4] = molecular target: T1, C-C chemokine receptor type 2; test: Antagonist activity at CCR2 receptor in human whole blood assessed as inhibition of alexa-tagged MCP-induced effect 30 mins by flow cytometry; format: functional, tissue-based

T1 sequence (P41597 whole entry): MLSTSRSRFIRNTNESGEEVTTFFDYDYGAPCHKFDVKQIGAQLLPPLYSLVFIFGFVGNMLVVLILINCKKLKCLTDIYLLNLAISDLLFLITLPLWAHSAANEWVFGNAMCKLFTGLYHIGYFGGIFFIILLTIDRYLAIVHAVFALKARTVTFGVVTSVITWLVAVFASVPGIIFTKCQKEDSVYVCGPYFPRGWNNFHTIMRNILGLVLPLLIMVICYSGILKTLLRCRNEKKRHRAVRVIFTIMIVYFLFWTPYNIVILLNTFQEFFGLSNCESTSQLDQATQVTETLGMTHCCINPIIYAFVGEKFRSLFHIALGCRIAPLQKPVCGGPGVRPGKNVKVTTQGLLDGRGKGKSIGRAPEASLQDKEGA
Chain of Voltage-gated inwardly rectifying potassium channel KCNH2 (Q12809 whole entry): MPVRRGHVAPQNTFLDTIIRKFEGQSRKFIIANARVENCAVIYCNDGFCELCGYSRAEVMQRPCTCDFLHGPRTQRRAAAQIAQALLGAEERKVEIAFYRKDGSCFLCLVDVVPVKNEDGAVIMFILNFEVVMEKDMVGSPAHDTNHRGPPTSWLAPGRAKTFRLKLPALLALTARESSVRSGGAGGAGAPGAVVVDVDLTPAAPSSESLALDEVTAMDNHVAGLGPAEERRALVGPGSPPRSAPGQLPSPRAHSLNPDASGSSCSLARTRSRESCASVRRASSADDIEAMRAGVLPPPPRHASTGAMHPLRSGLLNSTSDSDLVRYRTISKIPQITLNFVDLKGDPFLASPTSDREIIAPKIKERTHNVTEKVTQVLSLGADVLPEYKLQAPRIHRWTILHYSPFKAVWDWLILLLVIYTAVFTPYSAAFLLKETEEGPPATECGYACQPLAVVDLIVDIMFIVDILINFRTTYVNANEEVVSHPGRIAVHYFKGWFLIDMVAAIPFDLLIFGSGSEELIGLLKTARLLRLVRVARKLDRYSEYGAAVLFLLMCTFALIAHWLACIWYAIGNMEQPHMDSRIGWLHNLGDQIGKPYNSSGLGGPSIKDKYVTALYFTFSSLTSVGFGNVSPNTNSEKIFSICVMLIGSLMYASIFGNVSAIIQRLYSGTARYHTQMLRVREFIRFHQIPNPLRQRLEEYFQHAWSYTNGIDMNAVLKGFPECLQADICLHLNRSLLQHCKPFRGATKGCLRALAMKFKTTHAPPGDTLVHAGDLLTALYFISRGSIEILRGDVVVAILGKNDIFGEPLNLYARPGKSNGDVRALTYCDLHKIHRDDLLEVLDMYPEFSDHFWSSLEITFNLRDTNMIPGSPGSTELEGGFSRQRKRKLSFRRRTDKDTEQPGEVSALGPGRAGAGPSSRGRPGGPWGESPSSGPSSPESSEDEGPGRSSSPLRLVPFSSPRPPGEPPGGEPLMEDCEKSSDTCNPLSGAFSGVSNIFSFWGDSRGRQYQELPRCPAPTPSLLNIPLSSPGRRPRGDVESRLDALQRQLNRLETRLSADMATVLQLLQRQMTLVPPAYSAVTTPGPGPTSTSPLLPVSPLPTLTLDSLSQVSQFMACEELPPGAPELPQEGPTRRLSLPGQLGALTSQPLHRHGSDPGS
Chain of hERG (KCNH2) (Q12809 whole entry): as above

Row | SMILES | inhibition at 10 µM [1] | IC50 [2] | IC50 [3] | IC50 [4]
1 | O=C(NCC(=O)N1CC[C@H](N[C@H]2CC[C@@](O)(c3ccc(-c4cnccn4)cn3)CC2)C1)c1cccc(C(F)(F)F)c1 | 70% | > 30000 nM |  | 
2 | O=C(NCC(=O)N1CC[C@H](N[C@H]2CC[C@@](O)(c3ccc(-c4nccs4)cn3)CC2)C1)c1cccc(C(F)(F)F)c1 | 85% | > 30000 nM |  | 
3 | O=C(C1CCN(c2cccc(C(F)(F)F)c2)CC1)N1CC[C@H](N[C@H]2CC[C@@](O)(c3ccc(-c4ncccn4)cn3)CC2)C1 |  | 9000 nM | 3.6 nM | 37 nM
4 | O=C(C1CCN(c2cccc(C(F)(F)F)n2)CC1)N1CC[C@H](N[C@H]2CC[C@@](O)(c3ccc(-c4ncccn4)cn3)CC2)C1 |  |  | 4.5 nM | 88 nM
5 | O=C(C1CCN(c2cc(C(F)(F)F)ccn2)CC1)N1CC[C@H](N[C@H]2CC[C@@](O)(c3ccc(-c4ncccn4)cn3)CC2)C1 |  | 28000 nM | 3.3 nM | 12 nM
